Measurements: article PMC11451537, “P2X7 receptors exhibit at least three modes of allosteric antagonism” (Science Advances, 2024)
Positions count from the first letter of the chain named.

Experiments:
Assay type in all cases: cell-based
rP2X7-F103A = target: T1, rP2X7-F103A (Rattus norvegicus, UniProt Q64663, F103A); experiment: TEVC inhibition dose-response, rP2X7-F103A mutant; details: for IC50: reduced expression and variable response to ATP, read-out: IC50 (inhibitory potency), F103A
T1 sequence (Q64663 1-595 F103A): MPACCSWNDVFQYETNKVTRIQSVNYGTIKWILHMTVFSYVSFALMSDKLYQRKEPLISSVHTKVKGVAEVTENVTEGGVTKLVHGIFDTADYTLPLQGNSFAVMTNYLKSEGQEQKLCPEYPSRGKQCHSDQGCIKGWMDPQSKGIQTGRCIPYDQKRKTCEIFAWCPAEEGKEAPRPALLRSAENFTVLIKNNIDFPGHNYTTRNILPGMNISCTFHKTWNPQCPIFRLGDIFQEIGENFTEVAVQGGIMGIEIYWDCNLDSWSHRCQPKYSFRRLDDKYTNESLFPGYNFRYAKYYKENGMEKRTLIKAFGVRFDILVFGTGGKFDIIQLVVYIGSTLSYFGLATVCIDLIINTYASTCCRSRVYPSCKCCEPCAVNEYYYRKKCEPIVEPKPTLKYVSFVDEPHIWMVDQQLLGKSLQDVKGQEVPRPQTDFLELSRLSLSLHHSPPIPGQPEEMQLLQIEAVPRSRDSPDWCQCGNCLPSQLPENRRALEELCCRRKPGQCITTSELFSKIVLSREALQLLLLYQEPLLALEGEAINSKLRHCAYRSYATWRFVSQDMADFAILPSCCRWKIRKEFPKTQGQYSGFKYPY
Description: Structural determination of the full-length, wild-type rP2X7 was completed using a construct previously described containing no truncations or mutations ([16]). Furthermore, the rP2X7-WT construct used for electrophysiology experiments is unmodified full-length, wild-type rP2X7 with no green fluorescent protein (GFP), protease sites, or affinity tags present. The hP2X1-WT, hP2X2-WT, hP2X3-WT, hP2X4-WT, and hP2X7-WT constructs used for electrophysiology are similarly unmodified full-length, wild-type receptor constructs with no GFP, protease sites, or affinity tags present. Mutations to the rP2X7-WT construct used for electrophysiology experiments were made directly in the pcDNA3.1x plasmid. These constructs included the following: rP2X7-K297A, rP2X7-K297G, rP2X7-K297M, rP2X7-K297Q, rP2X7-K297V, rP2X7-Y298A, rP2X7-Y298G, rP2X7-Y298V, rP2X7-Y298L, rP2X7-R316A, rP2X7-R316G, rP2X7-R316Q, rP2X7-R316H, rP2X7-F88A, rP2X7-F103A, and rP2X7-Y295A.
(§1) To evaluate the inhibitory response of an antagonist for a dilution series, an initial excitatory signal was evoked at a subtype-specific concentration of ATP. Next, the antagonist was applied at a test concentration for 60 s and then coapplied at the same test concentration of the antagonist with the identical subtype-specific concentration of ATP. The antagonized signal was then normalized against the preceding excitatory signal evoked by ATP for each individual oocyte tested. The pre- and post-antagonist signals were evoked by 10 μM ATP for hP2X1, 10 μM ATP for hP2X2, 1 μM ATP for hP2X3, 50 μM ATP for hP2X4, and 100 μM ATP for P2X7. For the K297V mutation in rP2X7, pre- and post-antagonist signals were evoked by 300 μM ATP. Each dataset was then fit to a nonlinear regression named “[inhibitor] vs. response – Variable slope (four parameters)” in GraphPad Prism 9 to produce a sigmoidal curve and afford an IC50 value. Each singular condition was used to generate an average which is reported plus or minus its SD between three discrete trials.

rP2X7 = target: T2, rP2X7 (Rattus norvegicus, UniProt Q64663); experiment: TEVC inhibition dose-response (IC50), wild-type rP2X7 in Xenopus laevis oocytes; parameters: the rP2X7-WT construct used for electrophysiology experiments is unmodified full-length, wild-type rP2X7; expressed in transfected cells; host or cells: Xenopus laevis oocytes injected with mRNA made from pcDNA3.1x; details: for IC100 (100% inhibitory concentration): calculated from IC50 values, concentration applied in the recovery experiments; for IC50: wild-type rP2X7, TEVC, 100 μM ATP, 60 s antagonist pre-application, mean ± SD, triplicate
T2 sequence (Q64663 1-595): T1 sequence (Q64663 1-595 F103A) with A103F
Description: as §1

hP2X1 = target: T3, hP2X1 (Homo sapiens, UniProt P51575); experiment: TEVC inhibition dose-response (IC50), hP2X1 in Xenopus laevis oocytes; details: 10 μM ATP, mean ± SD, triplicate
T3 construct: The hP2X1-WT, hP2X2-WT, hP2X3-WT, hP2X4-WT, and hP2X7-WT constructs used for electrophysiology are similarly unmodified full-length, wild-type receptor constructs; expressed in transfected cells; host or cells: Xenopus laevis oocytes injected with mRNA made from pcDNA3.1x
T3 sequence (P51575 1-399): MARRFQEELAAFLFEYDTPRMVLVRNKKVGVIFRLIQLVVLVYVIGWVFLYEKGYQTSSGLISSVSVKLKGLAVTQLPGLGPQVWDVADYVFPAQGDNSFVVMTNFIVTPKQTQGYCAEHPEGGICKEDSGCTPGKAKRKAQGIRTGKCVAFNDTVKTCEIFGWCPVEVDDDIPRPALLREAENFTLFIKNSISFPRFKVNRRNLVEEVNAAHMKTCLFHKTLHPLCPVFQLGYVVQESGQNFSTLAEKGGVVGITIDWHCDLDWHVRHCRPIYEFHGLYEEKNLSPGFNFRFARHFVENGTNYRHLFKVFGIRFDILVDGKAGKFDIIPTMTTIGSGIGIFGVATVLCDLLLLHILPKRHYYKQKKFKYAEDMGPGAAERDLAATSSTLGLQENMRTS
Description: as §1

Row | SMILES | IC50 (rP2X7-F103A) | IC100 (100% inhibitory concentration) (rP2X7) | IC50 (rP2X7) | inhibition at 625 nM, F103A (rP2X7-F103A; 625 nM antagonist) | inhibition at 30 µM (rP2X7-F103A; 30 µM antagonist) | IC50 (hP2X1)
1 | Clc1cccc(-c2nnnn2Cc2cccnc2)c1Cl [A438079] | > 10000 nM | 6.6 µM | 550 ± 113 nM |  |  | 
2 | O=C(NCC1(N2CCN(c3ccccc3)CC2)CCOCC1)c1cccnc1Sc1ccccc1 [JNJ47965567] |  | 1.3 µM | 22 ± 6 nM | 50-80% |  | 
3 | CN1C(=O)CC[C@H]1C(=O)NCc1cccc(C(F)(F)F)c1Cl [GSK1482160] | > 20000 nM | 81 µM | 3600 ± 500 nM |  |  | 
4 | O=C(NCC12CC3CC(CC(C3)C1)C2)c1cc(CCCNCCCO)ccc1Cl [AZD9056] | > 10000 nM | 3 µM | 300 ± 100 nM |  |  | 
5 | O=S(=O)(O)c1ccc(N=C2C=CC(=C(c3ccc(Nc4ccc(S(=O)(=O)O)cc4)cc3)c3ccc(Nc4ccc(S(=O)(=O)O)cc4)cc3)C=C2)cc1 [methyl blue] |  | 108 µM | 4000 ± 1000 nM |  | 50 to 75% | 400 ± 100 nM
6 | Clc1cccc(-n2nnnc2NCc2ccccc2Oc2ccccn2)c1Cl [A839977] | > 1000 nM | 1 µM | 116 ± 13 nM |  |  | 
